Test results published in publication PMC7802075 (ACS Infectious Diseases, 2020).
Counter-ions that a name gives are not always drawn.

Molecular target: T1, LmjIPCS (inositol phosphorylceramide synthase from L. major) (Leishmania major, UniProt E9AFX2)
T1 sequence (E9AFX2 1-338): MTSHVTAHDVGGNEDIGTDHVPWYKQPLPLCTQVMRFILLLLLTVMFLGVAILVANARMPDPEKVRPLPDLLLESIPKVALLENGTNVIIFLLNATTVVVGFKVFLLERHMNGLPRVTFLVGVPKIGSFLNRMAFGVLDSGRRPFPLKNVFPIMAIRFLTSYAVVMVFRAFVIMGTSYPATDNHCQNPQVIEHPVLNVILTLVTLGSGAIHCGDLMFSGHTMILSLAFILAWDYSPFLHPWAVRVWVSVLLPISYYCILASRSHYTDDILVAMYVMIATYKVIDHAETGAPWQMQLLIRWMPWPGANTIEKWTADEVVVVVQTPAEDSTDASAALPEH
Assay: biochemical
Assay type: biochemical
Set-up: inhibition: dose or concentration left out as unconfirmed
Details: not given

Molecule	20mM inhibition LmjIPCS
COc1cccc(OC)c1OCCNCC1COc2ccccc2O1 (stereo not shown)	-4.65%
CC1=NN(c2ccccc2)C(=O)C1 [3-METHYL-1-PHENYL-2-PYRAZOLIN-5-ONE]	4.33%
O=C(CC(=O)c1ccccc1)c1ccccc1 [DIBENZOYLMETHANE]	44%
CC(=O)N1CCN(c2ccc(OCC3COC(Cn4ccnc4)(c4ccc(Cl)cc4Cl)O3)cc2)CC1 (stereo not shown) [KETOCONAZOLE]	69%
O=C1c2ccccc2C(=O)c2c(O)c(O)cc(O)c21 [PURPURIN]	35%
CC(=O)O.CNC(=N)NCCC[C@H](N)C(=O)O [Ng-METHYL-L-ARGININE ACETATE]	0.168%
CC(=O)[C@H]1CC[C@H]2[C@@H]3CCC4=CC(=O)CC[C@]4(C)[C@H]3CC[C@]12C [PROGESTERONE]	65%
CCN(CC)CCOCCOC(=O)C1(c2ccccc2)CCCC1 [CARBETAPENTANE]	51%
Cc1ccsc1/C=C/C1=NCCCN1C [MORANTEL]	60%
CCCCOc1ccc(C(=O)CCN2CCCCC2)cc1 [DYCLONINE]	61%
Nc1ccncc1 [AMINOPYRIDINE]	-4.7%
CCC1(CC)C(=O)C=CNC1=O [PYRITHYLDIONE]	52%
O=C1OC(=O)[C@H]2[C@@H]1[C@@H]1CC[C@H]2O1 [NORCANTHARIDIN]	1.76%
CCn1nc(C(=O)O)c(=O)c2cc3c(cc21)OCO3 [CINOXACIN]	53%
Cc1cccc(C)c1NC(=O)C1CCCCN1C (stereo not shown) [MEPIVACAINE]	55%
BENZALKONIUM CHLORIDE	9%
Cc1ccccc1N1C(=O)c2cc(S(N)(=O)=O)c(Cl)cc2NC1C (stereo not shown) [METOLAZONE]	50%
O=c1cc(-c2ccc(O)cc2)oc2cc(O)cc(O)c12 [APIGENIN]	59%
C[C@H](CCC(=O)[O-])[C@H]1CC[C@H]2[C@@H]3C(=O)C[C@@H]4CC(=O)CC[C@]4(C)[C@H]3CC(=O)[C@]12C.[Na+] [SODIUM DEHYDROCHOLATE]	-6.4%

Same assay, conditions: NINDS set screen, compound at 20mM (so in the source)

Molecule	20mM inhibition LmjIPCS
N#Cc1c(Cl)c(Cl)c(Cl)c(C#N)c1Cl [TETRACHLOROISOPHTHALONITRILE]	15%

Same assay, conditions: NINDS set screen, single concentration printed as 20mM

Molecule	20mM inhibition LmjIPCS
Nc1ccc(/N=N/c2ccccc2)c(N)n1 [PHENAZOPYRIDINE]	52%
CN(Cc1cc(Br)cc(Br)c1N)C1CCCCC1 [BROMHEXINE]	53%
Cc1cc(C(C)(C)C)cc(C)c1CC1=NCCN1 [XYLOMETAZOLINE]	62%
Cc1cc(C(C)(C)C)c(O)c(C(C)(C)C)c1 [2,6-DI-t-BUTYL-4-METHYLPHENOL]	36%
CC[C@H]1CN2CC[C@H]1C[C@@H]2[C@@H](O)c1ccnc2ccc(OC)cc12 [HYDROQUINIDINE]	58%

Same assay, conditions: NINDS set screen; read-out: inhibition LmjIPCS

Molecule	inhibition
O=C1c2ccccc2C(=O)C1c1ccccc1 [PHENINDIONE]	21%
CC(=O)N1CCCC1C(=O)O (stereo not shown) [N-ACETYLPROLINE]	-1.28%
CC[C@H]1OC(=O)[C@H](C)[C@@H](O[C@H]2C[C@@](C)(OC)[C@@H](O)[C@H](C)O2)[C@H](C)[C@@H](O[C@@H]2O[C@H](C)C[C@H](N(C)C)[C@H]2O)[C@](C)(O)C[C@@H](C)CN(C)[C@H](C)[C@@H](O)[C@]1(C)O [AZITHROMYCIN]	19%
COC(=O)C(C)c1ccc(C(=O)c2cccs2)cc1 (stereo not shown) [SUPROFEN METHYL ESTER]	-10%
CNC1(C)C2CCC(C2)C1(C)C (stereo not shown) [MECAMYLAMINE]	17%
OCCN(CCO)c1nc(N2CCCCC2)c2nc(N(CCO)CCO)nc(N3CCCCC3)c2n1 [DIPYRIDAMOLE]	-11%
C[C@]12C=CC(=O)C=C1CC[C@H]1[C@@H]3C[C@@H](O)[C@](O)(C(=O)CO)[C@@]3(C)C[C@H](O)[C@@]12F [TRIAMCINOLONE]	-1.57%
COc1cc2cc3c4cc(OC)c(OC)cc4cc[n+]3c(C)c2cc1OC [CORALYNE]	-5%
CC(C)NNC(=O)c1ccncc1 [IPRONIAZID]	31%
O=C1c2ccc(O)c(O)c2C(=O)c2c(O)ccc(O)c21 [QUINALIZARIN]	-2.7%
CN(C)CCC(c1ccccc1)c1ccccn1 (stereo not shown) [PHENIRAMINE]	-1%
CCN(CC)CCNC(=O)COc1ccc(OC)cc1 [MEFEXAMIDE]	13%
OCc1ccccc1O [SALICYL ALCOHOL]	23%

Same assay, conditions: read-out: 20mM inhibition LmjIPCS

Molecule	inhibition at 20000 µM
Cc1ccnc(NS(=O)(=O)c2ccc(N)cc2)n1 [SULFAMERAZINE]	3.51%
N#C[C@H](O[C@@H]1O[C@H](CO[C@@H]2O[C@H](CO)[C@@H](O)[C@H](O)[C@H]2O)[C@@H](O)[C@H](O)[C@H]1O)c1ccccc1 [AMYGDALIN]	-4%
NC[C@H](O)c1ccc(O)c(O)c1 [NOREPINEPHRINE]	12%
CN(C)CCc1c[nH]c2ccc(CS(=O)(=O)N3CCCC3)cc12 [ALMOTRIPTAN]	5%
CN[C@@H]1[C@@H](O)[C@@H](O[C@@H]2[C@@H](O)[C@H](O[C@H]3OC(CN)=CC[C@H]3N)[C@@H](N)C[C@H]2N)OC[C@]1(C)O [SISOMICIN]	19%
CN(C)C(=O)Oc1ccc[n+](C)c1 [PYRIDOSTIGMINE BROMIDE]	-5.55%
c1ccc(CC2=NCCN2)cc1 [TOLAZOLINE]	2.77%
C[C@H]1C(=O)O[C@@H]2CCN3CC=C(COC(=O)[C@](C)(O)[C@]1(C)O)[C@H]23 [MONOCROTALINE]	2%
COc1c(N2C[C@@H]3CCCN[C@@H]3C2)c(F)cc2c(=O)c(C(=O)O)cn(C3CC3)c12 [MOXIFLOXACIN]	16%
CC(=O)NS(=O)(=O)c1ccc(N)cc1 [SULFACETAMIDE]	-1.63%
CN[C@@H]1[C@H](O[C@H]2[C@H](O[C@H]3[C@H](O)[C@@H](O)[C@H](NC(=N)N)[C@@H](O)[C@@H]3NC(=N)N)O[C@@H](C)[C@]2(O)CO)O[C@@H](CO)[C@H](O)[C@H]1O [DIHYDROSTREPTOMYCIN]	12%
CC[C@H]1OC(=O)[C@H](C)C(=O)[C@H](C)[C@@H](O[C@@H]2O[C@H](C)C[C@H](N(C)C)[C@H]2O)[C@](C)(OC)C[C@@H](C)C(=O)[C@H](C)[C@H]2N(CCCCn3cnc(-c4cccnc4)c3)C(=O)O[C@]12C [TELITHROMYCIN]	3.66%
CN1CCCN=C1/C=C/c1cccs1	20%
CC[C@@]1([C@@H]2O[C@@H]([C@H]3O[C@@](O)(CO)[C@H](C)C[C@@H]3C)C[C@@H]2C)CC[C@H]([C@]2(C)CC[C@]3(C[C@H](O)[C@@H](C)[C@@H]([C@@H](C)[C@@H](OC)[C@H](C)C(=O)O)O3)O2)O1 [MONENSIN]	0.265%
C[C@]12CC[C@@H]3c4ccc(O)cc4CC[C@H]3[C@@H]1CCC2=O [ESTRONE]	1.15%
CC(C)(S)[C@@H](N)C(=O)O [PENICILLAMINE]	20%

Molecule	inhibition at 20000 µM
C=C1c2cccc(O)c2C(=O)C2=C(O)[C@]3(O)C(=O)C(C(N)=O)=C(O)[C@@H](N(C)C)[C@@H]3[C@@H](O)[C@H]12 [METHACYCLINE]	33%
O=C(O)CCCc1ccccc1 [PHENYLBUTYRATE]	1.15%
[H]/N=C(/N)NS(=O)(=O)c1ccc(N)cc1 [SULFAGUANIDINE]	-1.62%
CCC(N)C(O)c1ccc(O)c(O)c1 (stereo not shown) [ETHYLNOREPINEPHRINE]	-9%
CC(C)NCC(O)COc1ccc(CC(N)=O)cc1 (stereo not shown) [ATENOLOL]	-6%
C1CNCCN1 [PIPERAZINE]	5.42%
O=C(O)c1cccnc1C(=O)O [QUINOLINIC ACID]	5.51%
CC(C)C[C@H](CN)CC(=O)O [PREGABALIN]	12%
C[N+](C)(C)CCCCCC[N+](C)(C)C [HEXAMETHONIUM]	-4%
CN1C(=O)CCS(=O)(=O)C1c1ccc(Cl)cc1 (stereo not shown) [CHLORMEZANONE]	-1.07%
CC[C@H]1CN2CCc3cc(OC)c(OC)cc3[C@@H]2C[C@@H]1C[C@H]1NCCc2cc(OC)c(OC)cc21 [EMETINE]	11%
OCC(O)CN1CCN(c2ccccc2)CC1 (stereo not shown) [DROPROPIZINE]	18%
NCCCCN=C(N)N [AGMATINE SULFATE]	24%
CCN(CC)C(=S)SSC(=S)N(CC)CC	16%
Cc1cccc(Nc2ccncc2S(=O)(=O)NC(=O)NC(C)C)c1 [TORSEMIDE]	29%
O=C(Cn1ccnc1[N+](=O)[O-])NCCO [ETANIDAZOLE]	3.58%

Same assay, conditions: read-out: inhibition LmjIPCS

Molecule	inhibition
CC(C)N(CCC(C(N)=O)(c1ccccc1)c1ccccn1)C(C)C (stereo not shown) [DISOPYRAMIDE]	10%
CCCCC1=NC2(CCCC2)C(=O)N1Cc1ccc(-c2ccccc2-c2nnn[nH]2)cc1 [IRBESARTAN]	1%
O=C1NC(=O)C(c2ccccc2)(c2ccccc2)N1 [PHENYTOIN]	14%
O=C(O)c1cc(=O)c2c(OCC(O)COc3cccc4oc(C(=O)O)cc(=O)c34)cccc2o1 [CROMOLYN]	0.579%
O=C(O)P(=O)(O)O [FOSCARNET]	2%
C[C@@H]1O[C@@H]1P(=O)(O)O [FOSFOMYCIN]	16%
O=c1oc2ccccc2c(O)c1Cc1c(O)c2ccccc2oc1=O [DICUMAROL]	-3%

Same assay, conditions: screening of NINDS set, sheet Screen 1; read-out: inhibition LmjIPCS

Molecule	inhibition
CN(CCOc1ccc(CC2SC(=O)NC2=O)cc1)c1ccccn1 (stereo not shown) [ROSIGLITAZONE]	2.64%
CC(=O)N[C@@H](Cc1c[nH]c2ccccc12)C(N)=O [ACETYLTRYPTOPHANAMIDE]	1.65%
